Data from PubChem BioAssay (NCI).
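Cultured in 96-well plates, cells were exposed to test compound for 48 hours across five concentrations. At the TGI there is no net growth.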

What was measured:
Assay in all cases: growth of human tumour cells (NCI), 48 h
[1] = test system: CCRF-CEM leukemia
[2] = test system: HCC-2998 colon
[3] = test system: NCI-H23 lung
[4] = test system: SK-MEL-28 melanoma
[5] = test system: SW-620 colon
[6] = test system: TK-10 renal
[7] = test system: UACC-257 melanoma
[8] = test system: UACC-62 melanoma
[9] = test system: UO-31 renal
[10] = test system: NCI/ADR-RES ovarian

Measured: TGI

COC(=O)CC(CC(=O)C(=O)OC)C(=O)OC (stereo not drawn)
not listed: [10]
> 100 µM: all other assays above

CNS(=O)(=O)NN(C)S(=O)(=O)c1ccc(C)cc1
not listed: [10]
> 100 µM: all other assays above

O=C1/C(=C/c2ccccc2Cl)COc2ccccc21
33.7 µM: [1]
27.1 µM: [6]
36 µM: [3]
34.9 µM: [7]
30.1 µM: [4]
20.8 µM: [5]
35.9 µM: [2]
28.3 µM: [9]

CC1(C)OCC(C2OC(On3nnc4ccc(Cl)cc43)C3OC(C)(C)OC23)O1 (stereo not drawn)
not listed: [2] | [9]
> 100 µM: all other assays above

CC1(C)CC(C2CC(C)(C)CC(C)(C)[C@H]2O)[C@@H](O)C(C)(C)C1 (stereo partly drawn)
not listed: [10]
> 100 µM: all other assays above

Cc1cc(N(CCC#N)CCC#N)ccc1N=Nc1ccc([N+](=O)[O-])cc1
> 10 µM: [5] | [8]
83.2 µM: [6]
not listed: [10]
> 100 µM: all other assays above

Nc1ccc(C(=O)O)c2[nH]c3ccccc3c(=O)c12
not listed: [3] | [4] | [10]
> 100 µM: all other assays above

Nc1ncn([C@@H]2C=C(CO)C(O)C2O)c(=O)n1 (stereo partly drawn)
not listed: [10]
> 100 µM: all other assays above

Cc1ccc(C)c(NC(=O)CCC(=O)CC(=O)C(C)(C)C)c1
not listed: [10]
> 100 µM: all other assays above

COc1ccc(C(=O)Nc2ccccc2)cc1[N+](=O)[O-]
not listed: [2] | [10]
> 100 µM: all other assays above

Nc1cc2c3c(cccc3c1)C(=O)N(CCN1CCN(CCN3C(=O)c4cccc5cc(N)cc(c45)C3=O)CC1)C2=O
not listed: [10]
> 100 µM: all other assays above

COc1cc(C2c3cc4c(cc3[C@@H](OCCN)[C@H]3COC(=O)C23)OCO4)cc(OC)c1O (stereo partly drawn)
13.6 µM: [9]
2.37 µM: [4]
0.579 µM: [8]
18.2 µM: [7]
2.45 µM: [5]
> 19.8 µM: [6]
2.1 µM: [2]
0.0409 µM: [1]
0.731 µM: [3]
